Measurements from ChEMBL document CHEMBL1201862, “PubChem BioAssay data set” (2004).
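Interpolation was linear, between the two tested concentrations surrounding the appropriate level; five concentrations were tested over 48 hours in 96-well plates. At the GI50, growth is halved.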 The source made the active and inactive calls. No stated cut-off is given here; in the data, active = GI50 up to about 1.1 µM and inactive = higher.

Legend:
Test in all cases: DTP human tumour cell line panel, 48 h
A549 = tested on: A549
EKVX = tested on: EKVX
HCT-15 = tested on: HCT-15
HL-60 = tested on: HL-60
HOP-62 = tested on: HOP-62
KM12 = tested on: KM12
MCF7 = tested on: MCF7
MDA-MB-435 = tested on: MDA-MB-435
NCI-H226 = tested on: NCI-H226
OVCAR-3 = tested on: OVCAR-3
OVCAR-5 = tested on: OVCAR-5
OVCAR-8 = tested on: OVCAR-8
SF-268 = tested on: SF-268
SF-295 = tested on: SF-295
SK-MEL-28 = tested on: SK-MEL-28
SK-OV-3 = tested on: SK-OV-3
SW-620 = tested on: SW-620
U-251 = tested on: U-251
UACC-62 = tested on: UACC-62
UO-31 = tested on: UO-31

## CC(C)(C)C(=O)N1CCN(C=O)C1=S
A549
  GI50: 27.5 µM (inactive)
EKVX
  GI50: > 100 µM (inactive)
HCT-15
  GI50: 53.2 µM
HL-60
  GI50: 47.3 µM (inactive)
HOP-62
  GI50: > 100 µM (inactive)
KM12
  GI50: 75.9 µM (inactive)
MCF7
  GI50: 15.6 µM (inactive)
MDA-MB-435
  GI50: 35.9 µM (inactive)
NCI-H226
  GI50: > 100 µM (inactive)
OVCAR-3
  GI50: 38.2 µM (inactive)
OVCAR-5
  GI50: > 100 µM (inactive)
OVCAR-8
  GI50: 36.5 µM (inactive)
SF-268
  GI50: 80.4 µM (inactive)
SF-295
  GI50: > 100 µM (inactive)
SK-MEL-28
  GI50: 50.4 µM (inactive)
SK-OV-3
  GI50: > 100 µM (inactive)
SW-620
  GI50: 44.9 µM (inactive)
U-251
  GI50: 80.7 µM (inactive)
UACC-62
  GI50: 32.1 µM (inactive)
UO-31
  GI50: 0.0693 µM (active)

## CCOC(=O)c1c(N)sc2c1CC(C)CC2 (stereo not given)
A549
  GI50: 38.5 µM (inactive)
EKVX
  GI50: 32.6 µM (inactive)
HCT-15
  GI50: 41.8 µM
HL-60
  GI50: 0.292 µM (active)
HOP-62
  GI50: 52.5 µM (inactive)
KM12
  GI50: 41.5 µM (inactive)
MCF7
  GI50: 32.9 µM (inactive)
MDA-MB-435
  GI50: 41.2 µM (inactive)
NCI-H226
  GI50: 23.5 µM (inactive)
OVCAR-3
  GI50: 46.1 µM (inactive)
OVCAR-5
  GI50: 55.3 µM (inactive)
OVCAR-8
  GI50: 45.3 µM (inactive)
SF-268
  GI50: 45.1 µM (inactive)
SF-295
  GI50: 45 µM (inactive)
SK-MEL-28
  GI50: 53.5 µM (inactive)
SK-OV-3
  GI50: 47.6 µM (inactive)
SW-620
  GI50: 55.6 µM (inactive)
U-251
  GI50: 42.4 µM (inactive)
UACC-62
  GI50: 51.2 µM (inactive)
UO-31
  GI50: 32.3 µM (inactive)

## O=S(=O)(O)SCCNCCCCCC1CCCCC1
A549
  GI50: 7.8 µM (inactive)
EKVX
  GI50: 9.73 µM (inactive)
HCT-15
  GI50: 8.77 µM
HL-60
  GI50: 7.29 µM (inactive)
HOP-62
  GI50: 7.43 µM (inactive)
KM12
  GI50: 2.79 µM (inactive)
MCF7
  GI50: 2.75 µM (inactive)
MDA-MB-435
  GI50: 3.44 µM (inactive)
NCI-H226
  GI50: 11.5 µM (inactive)
OVCAR-3
  GI50: 5.87 µM (inactive)
OVCAR-5
  GI50: 9.64 µM (inactive)
OVCAR-8
  GI50: 10 µM (inactive)
SF-268
  GI50: 3.05 µM (inactive)
SF-295
  GI50: 5.86 µM (inactive)
SK-MEL-28
  GI50: 4.26 µM (inactive)
SK-OV-3
  GI50: 15.7 µM (inactive)
SW-620
  GI50: 7.78 µM (inactive)
U-251
  GI50: 5.46 µM (inactive)
UACC-62
  GI50: 1.88 µM (inactive)
UO-31
  GI50: 13.9 µM (inactive)

## O=C(O)CC(Cc1ccc2c(c1)OCO2)C(=O)O (stereo not given)
A549
  GI50: > 100 µM (inactive)
EKVX
  GI50: > 100 µM (inactive)
HCT-15
  GI50: > 100 µM
HL-60
  GI50: > 100 µM (inactive)
HOP-62
  GI50: > 100 µM (inactive)
KM12
  GI50: > 100 µM (inactive)
MCF7
  GI50: > 100 µM (inactive)
MDA-MB-435
  GI50: > 100 µM (inactive)
NCI-H226
  GI50: > 100 µM (inactive)
OVCAR-3
  GI50: > 100 µM (inactive)
OVCAR-5
  GI50: > 100 µM (inactive)
OVCAR-8
  GI50: > 100 µM (inactive)
SF-268
  GI50: > 100 µM (inactive)
SF-295
  GI50: > 100 µM (inactive)
SK-MEL-28
  GI50: > 100 µM (inactive)
SK-OV-3
  GI50: > 100 µM (inactive)
SW-620
  GI50: > 100 µM (inactive)
U-251
  GI50: > 100 µM (inactive)
UACC-62
  GI50: > 100 µM (inactive)
UO-31
  GI50: > 100 µM (inactive)

## CC1=C(C(=O)OCCO[N+](=O)[O-])C(c2ccccc2C(F)(F)F)C(C(=O)OC(C)C)=C(C)N1 (stereo not given)
A549
  GI50: 13.2 µM (inactive)
EKVX
  GI50: 24.6 µM (inactive)
HCT-15
  GI50: 12.2 µM
HL-60
  GI50: 15.9 µM (inactive)
HOP-62
  GI50: 20.6 µM (inactive)
KM12
  GI50: 8.63 µM (inactive)
MCF7
  GI50: 16 µM (inactive)
MDA-MB-435
  GI50: 16.6 µM (inactive)
NCI-H226
  GI50: 9.73 µM (inactive)
OVCAR-3
  GI50: 10.5 µM (inactive)
OVCAR-5
  GI50: 14.8 µM (inactive)
OVCAR-8
  GI50: 17.7 µM (inactive)
SF-268
  GI50: 16.3 µM (inactive)
SF-295
  GI50: 11.8 µM (inactive)
SK-MEL-28
  GI50: 16.6 µM (inactive)
SK-OV-3
  GI50: 39.6 µM (inactive)
SW-620
  GI50: 30.1 µM (inactive)
U-251
  GI50: 14.6 µM (inactive)
UACC-62
  GI50: 19.3 µM (inactive)
UO-31
  GI50: 11.3 µM (inactive)

## Oc1cccc2c(Cl)ccnc12
A549
  GI50: 3.44 µM (inactive)
EKVX
  GI50: 11.7 µM (inactive)
HCT-15
  GI50: 0.305 µM
HL-60
  GI50: 0.124 µM (active)
HOP-62
  GI50: 1.95 µM (inactive)
KM12
  GI50: 4.93 µM (inactive)
MCF7
  GI50: 1.11 µM (active)
MDA-MB-435
  GI50: 2.67 µM (inactive)
NCI-H226
  GI50: 7.45 µM (inactive)
OVCAR-3
  GI50: 0.287 µM (active)
OVCAR-5
  GI50: 5.22 µM (inactive)
OVCAR-8
  GI50: 0.372 µM (active)
SF-268
  GI50: 0.522 µM (active)
SF-295
  GI50: 0.889 µM (active)
SK-MEL-28
  GI50: 7.69 µM (inactive)
SK-OV-3
  GI50: 32.9 µM (inactive)
SW-620
  GI50: 0.778 µM (active)
U-251
  GI50: 1.45 µM (inactive)
UACC-62
  GI50: 0.362 µM (active)
UO-31
  GI50: 1.37 µM (inactive)
